Results as given in PubChem BioAssay AID1963832 (Molecular Pharmacology Branch, DTP, NCI, 2024).

Tested on: 885724-159-R-J1-PDC complex spheroid viability
Test: Anticancer human tumor 885724-159-R-J1-PDC patient-derived pancreatic adenocarcinoma cell line growth inhibition [POLQ]
Conditions: for IC50: curve of first compound; for viability, T/C: stronger effect = lower value
In short: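 Growth inhibition in 3D: complex spheroids (tumor PDC, HUVEC, MSC) treated with POLQ inhibitor combinations; where Cmax unknown, highest tested concentration 10 microM, except SN-38 at 1 microM.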

[1] = second compound 0.0316 µM, first compound 0.0316 µM
[2] = second compound 0.0316 µM, first compound 0.1 µM
[3] = second compound 0.0316 µM, first compound 0.316 µM
[4] = second compound 0.0316 µM, first compound 1 µM
[5] = second compound 0.0316 µM, first compound 3.16 µM
[6] = second compound 0.0316 µM, first compound 10 µM
[7] = second compound 0.1 µM, first compound 0.0316 µM
[8] = second compound 0.1 µM, first compound 0.1 µM
[9] = second compound 0.1 µM, first compound 0.316 µM
[10] = second compound 0.1 µM, first compound 1 µM
[11] = second compound 0.1 µM, first compound 3.16 µM
[12] = second compound 0.1 µM, first compound 10 µM
[13] = second compound 0.316 µM, first compound 0.0316 µM
[14] = second compound 0.316 µM, first compound 0.1 µM
[15] = second compound 0.316 µM, first compound 0.316 µM
[16] = second compound 0.316 µM, first compound 1 µM
[17] = second compound 0.316 µM, first compound 3.16 µM
[18] = second compound 0.316 µM, first compound 10 µM
[19] = second compound 1 µM, first compound 0.0316 µM
[20] = second compound 1 µM, first compound 0.1 µM
[21] = second compound 1 µM, first compound 0.316 µM
[22] = second compound 1 µM, first compound 1 µM
[23] = second compound 1 µM, first compound 3.16 µM
[24] = second compound 1 µM, first compound 10 µM
[25] = second compound 3.16 µM, first compound 0.0316 µM
[26] = second compound 3.16 µM, first compound 0.1 µM
[27] = second compound 3.16 µM, first compound 0.316 µM
[28] = second compound 3.16 µM, first compound 1 µM
[29] = second compound 3.16 µM, first compound 3.16 µM
[30] = second compound 3.16 µM, first compound 10 µM
[31] = second compound 10 µM, first compound 0.0316 µM
[32] = second compound 10 µM, first compound 0.1 µM
[33] = second compound 10 µM, first compound 0.316 µM
[34] = second compound 10 µM, first compound 1 µM
[35] = second compound 10 µM, first compound 3.16 µM
[36] = second compound 10 µM, first compound 10 µM
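Also: spheroids exposed to compounds for 7 days.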

Compound: CCc1cc2c(N3CCc4c(cc(Cn5ccnc5)cc4-c4cn(C)nc4C(F)(F)F)C3=O)cc(C)nc2c(OC)n1 + Cc1cccc(N(C)C(=O)C2C(O)CCN2c2nc(C)cc(C(F)(F)F)c2C#N)c1
- IC50 (second compound 0.0316 µM): > 10 µM
- IC50 (second compound 0.1 µM): > 10 µM
- IC50 (second compound 0.316 µM): > 10 µM
- IC50 (second compound 1 µM): > 10 µM
- IC50 (second compound 3.16 µM): > 10 µM
- IC50 (second compound 10 µM): > 10 µM
- viability, T/C [1]: 86.5%
- viability, T/C [2]: 82%
- viability, T/C [3]: 84.8%
- viability, T/C [4]: 75.2%
- viability, T/C [5]: 83.1%
- viability, T/C [6]: 70.1%
- viability, T/C [7]: 85.9%
- viability, T/C [8]: 86.2%
- viability, T/C [9]: 84.6%
- viability, T/C [10]: 81.7%
- viability, T/C [11]: 78.5%
- viability, T/C [12]: 68.1%
- viability, T/C [13]: 89.1%
- viability, T/C [14]: 83.5%
- viability, T/C [15]: 84.3%
- viability, T/C [16]: 83.9%
- viability, T/C [17]: 77.4%
- viability, T/C [18]: 68.7%
- viability, T/C [19]: 93.5%
- viability, T/C [20]: 92.1%
- viability, T/C [21]: 86%
- viability, T/C [22]: 79.2%
- viability, T/C [23]: 76.1%
- viability, T/C [24]: 68%
- viability, T/C [25]: 93.2%
- viability, T/C [26]: 84.9%
- viability, T/C [27]: 88.2%
- viability, T/C [28]: 84.5%
- viability, T/C [29]: 72.9%
- viability, T/C [30]: 75.4%
- viability, T/C [31]: 83.9%
- viability, T/C [32]: 91%
- viability, T/C [33]: 87.5%
- viability, T/C [34]: 81.6%
- viability, T/C [35]: 75.8%
- viability, T/C [36]: 71%

Compound: COc1cc2cc(C(=O)CCC(=O)O)sc2cc1OC + Cc1cccc(N(C)C(=O)C2C(O)CCN2c2nc(C)cc(C(F)(F)F)c2C#N)c1
- IC50 (second compound 0.0316 µM): > 10 µM
- IC50 (second compound 0.1 µM): > 10 µM
- IC50 (second compound 0.316 µM): > 10 µM
- IC50 (second compound 1 µM): > 10 µM
- IC50 (second compound 3.16 µM): > 10 µM
- IC50 (second compound 10 µM): > 10 µM
- viability, T/C [1]: 108%
- viability, T/C [2]: 104%
- viability, T/C [3]: 100%
- viability, T/C [4]: 103%
- viability, T/C [5]: 107%
- viability, T/C [6]: 95.6%
- viability, T/C [7]: 114%
- viability, T/C [8]: 103%
- viability, T/C [9]: 96.9%
- viability, T/C [10]: 104%
- viability, T/C [11]: 99.2%
- viability, T/C [12]: 103%
- viability, T/C [13]: 99.5%
- viability, T/C [14]: 106%
- viability, T/C [15]: 89.2%
- viability, T/C [16]: 109%
- viability, T/C [17]: 98.4%
- viability, T/C [18]: 85.7%
- viability, T/C [19]: 105%
- viability, T/C [20]: 114%
- viability, T/C [21]: 93.1%
- viability, T/C [22]: 104%
- viability, T/C [23]: 105%
- viability, T/C [24]: 93.5%
- viability, T/C [25]: 116%
- viability, T/C [26]: 96.5%
- viability, T/C [27]: 103%
- viability, T/C [28]: 98%
- viability, T/C [29]: 104%
- viability, T/C [30]: 88.6%
- viability, T/C [31]: 101%
- viability, T/C [32]: 105%
- viability, T/C [33]: 99.2%
- viability, T/C [34]: 102%
- viability, T/C [35]: 87.7%
- viability, T/C [36]: 92.5%

Compound: COc1ccc([C@@H](O)c2cc(-c3ncnc4cc(N5CCOCC5)ccc34)c(F)cc2Cl)nn1 + Cc1cccc(N(C)C(=O)C2C(O)CCN2c2nc(C)cc(C(F)(F)F)c2C#N)c1
- IC50 (second compound 0.0316 µM): 4.63 µM
- IC50 (second compound 0.1 µM): 4.02 µM
- IC50 (second compound 0.316 µM): 4.68 µM
- IC50 (second compound 1 µM): 3.96 µM
- IC50 (second compound 3.16 µM): 4.44 µM
- IC50 (second compound 10 µM): 4.6 µM
- viability, T/C [1]: 112%
- viability, T/C [2]: 90.2%
- viability, T/C [3]: 88.6%
- viability, T/C [4]: 70.1%
- viability, T/C [5]: 60.5%
- viability, T/C [6]: 35.6%
- viability, T/C [7]: 93.7%
- viability, T/C [8]: 91.6%
- viability, T/C [9]: 81.5%
- viability, T/C [10]: 64.7%
- viability, T/C [11]: 56.7%
- viability, T/C [12]: 35.2%
- viability, T/C [13]: 104%
- viability, T/C [14]: 84.8%
- viability, T/C [15]: 81.1%
- viability, T/C [16]: 81.9%
- viability, T/C [17]: 57.2%
- viability, T/C [18]: 33.7%
- viability, T/C [19]: 103%
- viability, T/C [20]: 93.2%
- viability, T/C [21]: 89%
- viability, T/C [22]: 68%
- viability, T/C [23]: 55.3%
- viability, T/C [24]: 34.5%
- viability, T/C [25]: 100%
- viability, T/C [26]: 92.5%
- viability, T/C [27]: 85.1%
- viability, T/C [28]: 78.6%
- viability, T/C [29]: 55.2%
- viability, T/C [30]: 33.4%
- viability, T/C [31]: 101%
- viability, T/C [32]: 90.3%
- viability, T/C [33]: 85.1%
- viability, T/C [34]: 77%
- viability, T/C [35]: 55.9%
- viability, T/C [36]: 34.9%

Compound: O=C(Nc1ccc(O)c(NS(=O)(=O)c2ccc(F)cc2)c1)c1ccc(-c2ccccc2)cc1 + Cc1cccc(N(C)C(=O)C2C(O)CCN2c2nc(C)cc(C(F)(F)F)c2C#N)c1
- IC50 (second compound 0.0316 µM): > 10 µM
- IC50 (second compound 0.1 µM): > 10 µM
- IC50 (second compound 0.316 µM): > 10 µM
- IC50 (second compound 1 µM): > 10 µM
- IC50 (second compound 3.16 µM): > 10 µM
- IC50 (second compound 10 µM): > 10 µM
- viability, T/C [1]: 110%
- viability, T/C [2]: 92.4%
- viability, T/C [3]: 101%
- viability, T/C [4]: 102%
- viability, T/C [5]: 106%
- viability, T/C [6]: 102%
- viability, T/C [7]: 96.6%
- viability, T/C [8]: 103%
- viability, T/C [9]: 94.2%
- viability, T/C [10]: 107%
- viability, T/C [11]: 111%
- viability, T/C [12]: 117%
- viability, T/C [13]: 102%
- viability, T/C [14]: 92.3%
- viability, T/C [15]: 98.3%
- viability, T/C [16]: 101%
- viability, T/C [17]: 118%
- viability, T/C [18]: 108%
- viability, T/C [19]: 110%
- viability, T/C [20]: 91.2%
- viability, T/C [21]: 107%
- viability, T/C [22]: 106%
- viability, T/C [23]: 112%
- viability, T/C [24]: 111%
- viability, T/C [25]: 107%
- viability, T/C [26]: 90.1%
- viability, T/C [27]: 105%
- viability, T/C [28]: 104%
- viability, T/C [29]: 115%
- viability, T/C [30]: 107%
- viability, T/C [31]: 105%
- viability, T/C [32]: 102%
- viability, T/C [33]: 104%
- viability, T/C [34]: 108%
- viability, T/C [35]: 123%
- viability, T/C [36]: 101%
